Laboratory results reported in ChEMBL document CHEMBL1201862, “PubChem BioAssay data set” (2004).
Active and inactive are the calls of the source.

Columns and labels:
[1] = system: P388; test: cells; format: functional; settings: Mus musculus
[2] = system: SN12K1; test: cells; format: functional; settings: Homo sapiens
[3] = system: P388/ADR; test: cells; format: functional; settings: Mus musculus
[4] = biological target: T1, Ubiquitin-conjugating enzyme E2 N (Homo sapiens, UniProt P61088); format: functional;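 also: Dose-response confirmation in a TR-FRET assay detecting UBC13-driven polyubiquitin chain formation, inhibition measured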
T1 sequence (P61088 whole entry): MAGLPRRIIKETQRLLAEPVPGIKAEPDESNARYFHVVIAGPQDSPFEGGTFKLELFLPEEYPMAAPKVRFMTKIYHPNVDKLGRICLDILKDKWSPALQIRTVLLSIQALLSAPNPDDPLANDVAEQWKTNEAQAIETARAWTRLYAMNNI

[5] = biological target: T2, Corticotropin-releasing factor receptor 2/Corticotropin-releasing factor-binding protein (Homo sapiens, UniProt P24387+Q13324); test: activators of CRF receptor 2 with binding protein – uHTS hits, confirmation (AID 602473); format: functional; settings: read-out: EC50_Mean
T2 sequence (Q13324 whole entry): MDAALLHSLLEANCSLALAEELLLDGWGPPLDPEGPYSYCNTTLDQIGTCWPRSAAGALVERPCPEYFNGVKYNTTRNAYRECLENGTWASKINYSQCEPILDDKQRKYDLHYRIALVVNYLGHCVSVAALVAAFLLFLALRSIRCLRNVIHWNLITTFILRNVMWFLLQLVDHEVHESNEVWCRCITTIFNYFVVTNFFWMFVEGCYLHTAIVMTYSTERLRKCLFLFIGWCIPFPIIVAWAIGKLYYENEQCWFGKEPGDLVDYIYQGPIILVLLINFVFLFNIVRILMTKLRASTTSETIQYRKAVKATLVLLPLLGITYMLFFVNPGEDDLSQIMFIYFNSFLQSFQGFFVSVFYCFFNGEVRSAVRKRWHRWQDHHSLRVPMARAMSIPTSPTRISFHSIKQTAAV
T2 sequence (P24387 whole entry): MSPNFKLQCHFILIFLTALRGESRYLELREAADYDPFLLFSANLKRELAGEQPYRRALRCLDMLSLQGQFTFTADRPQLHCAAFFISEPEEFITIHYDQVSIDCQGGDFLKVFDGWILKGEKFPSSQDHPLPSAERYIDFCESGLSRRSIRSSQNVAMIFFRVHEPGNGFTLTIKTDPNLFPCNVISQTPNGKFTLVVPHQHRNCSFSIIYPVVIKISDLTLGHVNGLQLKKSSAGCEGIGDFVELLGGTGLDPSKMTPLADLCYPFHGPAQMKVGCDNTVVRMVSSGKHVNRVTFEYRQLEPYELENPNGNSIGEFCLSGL

[6] = reduction of Shn3 3'UTR-driven luciferase in osteoblasts – cell-based, Clone20 osteoblasts, firefly luciferase, cherry-picked, dose response (AID 624132); format: functional;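 also: firefly luciferase luminescence from reporter carrying the Shn3 3'UTR in osteoblasts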
[7] = non-specific 3'UTR reporter inhibition in Clone20-Shn3RL – cell-based, Renilla luciferase, cherry-picked, counter-screen for Shn3 inhibitor project, dose response (AID 624133); format: functional
[8] = NIH3T3 cell viability loss – ATP luminescence, mouse fibroblasts, counter-screen, dose response (AID 2010); format: functional, cell-based;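 also: cells exposed to compound for about 90 hours before reading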
[9] = loss of viability in HepG2 cells – cell-based, CellTiter-Glo, cherry-picked, cytotoxicity control for Shn3 inhibitor project, dose response (AID 624134); format: functional
[10] = Trypanosoma cruzi growth suppression in host cells – NIH3T3 host cells, beta-gal luminescence, confirmation (AID 2044); format: functional, cell-based;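 also: intracellular parasites grown in NIH/3T3 mouse fibroblasts as host cells; luminescent beta-galactosidase reporter signal from transgenic T. cruzi replicating inside host cells; inhibitors lower the luminescence signal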
[11] = biological target: FAD-linked sulfhydryl oxidase ALR (Homo sapiens, UniProt P55789); test: ALR-catalysed DTT oxidation blockers – biochemical, H2O2 detection, luminescence, cherry-pick, dose response (AID 493248)
[12] = biological target: T3, Heat shock factor protein 1 (Mus musculus, UniProt P38532); test: decrease of HSF1-responsive luciferase luminescence – cell-based, NIH3T3, dose retest, confirmation (AID 2382); format: functional;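 also: NIH3T3 fibroblasts with HSF1-driven luciferase reporter stressed by proteasome inhibitor MG132; luminescence from HSF1-driven luciferase expression after 8 hours of MG132 stress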
T3 sequence (P38532 whole entry): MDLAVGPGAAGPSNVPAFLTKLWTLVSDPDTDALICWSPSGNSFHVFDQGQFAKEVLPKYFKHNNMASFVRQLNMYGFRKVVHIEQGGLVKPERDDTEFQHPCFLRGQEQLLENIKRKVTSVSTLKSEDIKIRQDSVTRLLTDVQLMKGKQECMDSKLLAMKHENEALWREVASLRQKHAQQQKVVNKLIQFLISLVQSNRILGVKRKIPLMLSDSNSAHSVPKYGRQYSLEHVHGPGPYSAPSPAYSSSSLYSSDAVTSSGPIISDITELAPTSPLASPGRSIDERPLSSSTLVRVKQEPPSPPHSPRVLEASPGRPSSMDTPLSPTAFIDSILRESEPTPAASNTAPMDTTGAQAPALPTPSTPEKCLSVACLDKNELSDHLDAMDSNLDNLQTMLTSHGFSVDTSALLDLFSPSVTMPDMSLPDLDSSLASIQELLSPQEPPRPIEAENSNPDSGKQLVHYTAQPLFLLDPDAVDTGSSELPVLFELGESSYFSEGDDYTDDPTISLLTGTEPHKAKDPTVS

[13] = system: INS1; test: INS-1E survival protection against cytokine death – cell-based, luminescence, retest, dose response (AID 449756); format: functional; settings: Rattus norvegicus;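 also: cell death triggered by IL-1 beta plus TNF-alpha plus IFN-gamma mixture; protective hits raise ATP signal compared with cytokine alone wells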
[14] = system: Streptococcus sp. 'group A'; test: Streptococcus pyogenes SK(-)GAS viability under kanamycin – luminescence, BacTiterGlo, confirmation, counter-screen for streptokinase expression inhibitor project, dose response (AID 1900); format: functional, organism-based
[15] = system: Streptococcus; test: GAS UMAA2166 growth inhibition – luminescence, BacTiterGlo, counter-screen for streptokinase expression inhibitor project, dose response (AID 1915); format: functional, organism-based;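 also: potency for reduction of bacterial viability or growth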
[16] = microbe, parasite or virus in culture; format: functional; settings: Mycobacterium tuberculosis
[17] = biological target: T4, Calpain-2 catalytic subunit (Sus scrofa, UniProt P43367); test: m-calpain protease blockers, concentration series – biochemical, fluorogenic peptide substrate, dose response (AID 1420); format: functional
T4 sequence (P43367 whole entry): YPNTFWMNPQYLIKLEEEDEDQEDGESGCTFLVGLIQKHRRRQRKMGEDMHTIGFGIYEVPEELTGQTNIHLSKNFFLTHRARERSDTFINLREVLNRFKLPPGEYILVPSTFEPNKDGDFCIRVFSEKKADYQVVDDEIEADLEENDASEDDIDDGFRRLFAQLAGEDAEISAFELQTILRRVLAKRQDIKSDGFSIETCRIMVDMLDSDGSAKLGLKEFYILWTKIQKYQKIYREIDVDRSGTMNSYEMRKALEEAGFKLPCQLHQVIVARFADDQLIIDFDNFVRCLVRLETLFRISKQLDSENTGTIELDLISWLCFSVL

[18] = biological target: T5, High affinity choline transporter 1 (Homo sapiens, UniProt Q9GZV3); test: human choline transporter blockers, potency – cell-based, 5-point CRC, membrane potential dye, dose response (AID 504840); format: functional
T5 sequence (Q9GZV3 whole entry): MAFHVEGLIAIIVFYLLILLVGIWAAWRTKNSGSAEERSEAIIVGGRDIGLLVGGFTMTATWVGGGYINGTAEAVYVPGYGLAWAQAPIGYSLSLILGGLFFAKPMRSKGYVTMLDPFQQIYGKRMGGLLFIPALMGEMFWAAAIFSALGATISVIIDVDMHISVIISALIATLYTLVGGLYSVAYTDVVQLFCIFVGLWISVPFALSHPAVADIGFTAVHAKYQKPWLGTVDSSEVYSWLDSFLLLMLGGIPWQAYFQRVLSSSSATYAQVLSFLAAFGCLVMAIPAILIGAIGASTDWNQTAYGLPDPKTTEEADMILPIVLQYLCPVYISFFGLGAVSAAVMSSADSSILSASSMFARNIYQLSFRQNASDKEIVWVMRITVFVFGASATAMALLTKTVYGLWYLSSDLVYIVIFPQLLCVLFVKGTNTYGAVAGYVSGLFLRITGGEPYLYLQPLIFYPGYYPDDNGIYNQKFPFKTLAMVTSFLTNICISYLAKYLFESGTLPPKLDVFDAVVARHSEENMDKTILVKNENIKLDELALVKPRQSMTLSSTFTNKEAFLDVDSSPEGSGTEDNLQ

FAD-linked sulfhydryl oxidase ALR, sequence (P55789 whole entry): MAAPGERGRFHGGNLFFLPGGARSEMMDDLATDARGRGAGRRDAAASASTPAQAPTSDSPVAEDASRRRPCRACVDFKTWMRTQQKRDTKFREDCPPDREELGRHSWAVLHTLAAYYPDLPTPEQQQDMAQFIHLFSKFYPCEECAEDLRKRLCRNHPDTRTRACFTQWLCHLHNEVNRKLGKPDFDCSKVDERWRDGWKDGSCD

Question: What does the source list for `C[C@H](CN1CC(=O)NC(=O)C1)N1CC(=O)NC(=O)C1`?
Answer: GI50 [1]: 319 nM (active); GI50 [2]: 36.8 µM (inactive); GI50 [3]: 13.9 µM (inactive)

Question: With `CCCCC(=O)NC(=S)NNC(=O)c1ccc(OC)cc1` as the compound, how does the IC50 [4] read?
Answer: > 20 µM (inactive)

Question: What about the EC50 [5] of the same compound?
Answer: 5.06 µM (active)

Question: Which AC50 [6] does the source give for `CCn1c(N2CCN(S(=O)(=O)c3ccc(Cl)cc3)CC2)nc2ccccc21` here?
Answer: 9.14 µM (active)

Question: What about the AC50 [7] of the same compound?
Answer: 9.17 µM (active)

Question: And the EC50 [8]?
Answer: > 60 µM (not active)

Question: What about the AC50 [9] of the same compound?
Answer: 58.3 µM (active)

Question: What about the EC50 [10] of the same compound?
Answer: 1.55 µM (active)

Question: With `CNC(SCc1cc2c(cc1Cl)OCO2)=C1C(=O)N(C)C(=O)N(C)C1=O` as the compound, how does the AC50 [11] read?
Answer: 1.56 µM (active)

Question: And the EC50 [12]?
Answer: > 195 µM (not active)

Question: Which AC50 [6] does the source give for `COc1ccc(C(NC(C)=O)c2cc(Cl)c3cccnc3c2O)cc1OC` (configuration not stated) here?
Answer: 3.45 µM (active)

Question: What about the AC50 [13] of the same compound?
Answer: 2.3 µM (active)

Question: What about the AC50 [7] of the same compound?
Answer: 2.98 µM (active)

Question: What about the EC50 [8] of the same compound?
Answer: 1.01 µM (active)

Question: And the AC50 [9]?
Answer: 3.12 µM (active)

Question: And the EC50 [14]?
Answer: 3.99 µM (active)

Question: What about the EC50 [15] of the same compound?
Answer: 3.67 µM (active)

Question: And the EC50 [10]?
Answer: 0.941 µM (active)

Question: Which results are given for `c1ccc(-c2nc3nonc3nc2-c2ccccc2)cc1`?
Answer: AC50 [13]: 1.15 µM (active); CC50 [16]: 17.8 µM (active)

Question: With `Cc1ccc(S(=O)(=O)NNC(=O)c2ccc3ccccc3n2)cc1` as the compound, how does the AC50 [11] read?
Answer: 7 µM (active)

Question: For `Cc1c(C(=O)c2ccc(N(C)C)cc2)c2ccccn2c1CCC#N`, which AC50 [11] is on record?
Answer: 2.73 µM (active)

Question: What about the IC50 [17] of the same compound?
Answer: > 50 µM (not active)

Question: Which IC50 [18] does the source give for `COC(=O)c1cccc(NC(=O)c2ccc(S(=O)(=O)N3CCN(C)CC3)cc2)c1` here?
Answer: 14.5 µM (active)

Question: Which IC50 [18] does the source give for `Cc1ccccc1N(C)S(=O)(=O)c1ccc2ncc(C(=O)NCC3CCCO3)c(O)c2c1` (configuration not stated) here?
Answer: 12 µM (active)

Question: Which AC50 [11] does the source give for `C=CC[n+]1c(C)csc1Nc1cccc(Br)c1` here?
Answer: 7.54 µM (active)

Question: Which IC50 [18] does the source give for `Cc1nn(Cc2ccccc2Cl)c(C)c1NC(=O)c1noc2c1CCCCC2` here?
Answer: 13.8 µM (active)

Question: With `CN1CCCN(c2ncnc3scc(-c4ccc(F)cc4)c23)CC1` as the compound, how does the IC50 [18] read?
Answer: 12.9 µM (active)

Question: Which AC50 [11] does the source give for `Cc1ccc(S(=O)(=O)Nc2c(C(=O)O)[nH]c3ccccc23)cc1C` here?
Answer: 10.8 µM (active)

Question: For `COc1ccc(C2/C=C\CN(C(=O)c3ccccc3)[C@H](Cc3ccccc3)C(=O)N2Cc2ccc(F)cc2)cc1` (some centres not stated), which AC50 [13] is on record?
Answer: 7.46 µM (active)
